This note sets out measurements from patent EP2875815A1, “N'-(2-(3-oxobenzo[d]isothiazol-2(3h)-yl)acetyl)adamantane-1-carbohydrazide as a novel inhibitor for staphylococcus aureus sortase a” (Latvian Biomedical Research and Study Centre, priority 2013, dated 2015).

What is called MIC is the lowest concentration that inhibits growth of the organism.

For one experiment, the target named is T1, S. aureus sortase A (Staphylococcus aureus, UniProt Q2FV99).
T1 construct: expressed with an N-terminal deletion of 59 amino acid residues (SrtAΔNS9, residues 60-206); made in house
T1 sequence (Q2FV99 60-206): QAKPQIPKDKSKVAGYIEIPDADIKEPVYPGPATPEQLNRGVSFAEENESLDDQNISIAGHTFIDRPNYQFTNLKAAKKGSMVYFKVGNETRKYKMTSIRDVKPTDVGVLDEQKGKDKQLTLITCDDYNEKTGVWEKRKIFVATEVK
Put plainly: SrtA enzyme FRET inhibition assay (recombinant sortase A, FRET peptide substrate with LPETG motif). In kind it is biochemical. The settings on record: SrtA inhib. concentration, means ±SD (n = 5). The text has this: The catalytically active recombinant sortase A enzyme used for these studies was expressed with an N-terminal deletion of 59 amino acid residues (SrtAΔNS9, residues 60-206). The first step included high-throughput screening of potent S. aereus SrtA inhibitors and selection of new antibacterial substances as sortase A inhibitors. In order to identify potent inhibitors of S. aureus sortase A, a high-throughput screening (HTS) of a diverse library of 50,000 drug-like low-molecular weight molecules was performed, which led to the identification of novel promising drug candidates.
(§1) These assays included determination of 50% SrtA inhibition concentration (IC50) of the newly synthesized derivative in dose-response experiments using the recombinant sortase A enzyme incubated with FRET peptide substrate containing the LPETG motif, minimal inhibitory concentration (MIC) test with two staphylococcal species to measure the antimicrobial efficacy of the new inhibitory molecule, and toxicity test using a normal mouse embryonic fibroblasts cell line NIH/3T3 to determine the cell growth IC50 inhibitory concentration.
Values are means ±SD (n = 5).

The test system of the next experiment is NIH/3T3 cells. Put plainly: Cytotoxicity (MTT cell growth inhibition) test. It is filed as cell-based. The settings on record: Mus musculus, read-out: 50% NIH/3T3 cell growth inhibition concentration, (IC50). The protocol: as §1
The growth inhibitory effect of the newly synthesized compound was studied on NIH/3T3mouse fibroblast cell line. NIH/3T3 cells were seeded into 96-well microplates with initial density of 1x10^4 cells per well in DMEM culture medium with 10% FCS. After 24 hours of incubation, cells were exposed to a graded series of concentrations of chemical compounds for additional 48 hours. The cell medium was removed and 100 µl of fresh culture medium without phenol red and 1 mM MTT solution was added to each well. After 3 hours of incubation, an equal volume of 1% SDS-HCl solution was added and plates were incubated for additional 4 hours. Absorbance was measured at 570 nm and the data were fitted to a four parameter variable slope equation to determine the IC50 value. […]

A further experiment relates to Staphylococcus aureus. Put plainly: MIC test, broth dilution micromethod. It is filed as cell-based. The settings on record: for MIC: Staphylococcus aureus, 24 hours at 37 °C, complete inhibition of cell growth, read-out: MIC, S.aureus. The procedure: as §1
(§2) The MIC values of test compounds that inhibited cell growth of Gram-positive Staphylococcus aureus and S. epidermidis were determined by broth dilution micromethod. A series of solutions with a range from 0.1 µg/ml to 400 µg/ml were made in using a logarithmical phase culture with OD600 = 0.1 (corresponds to ∼1.2 x 10^8 CFU/ml in 96-well plate standard. The plate was incubated at 37 °C for 24 hours and growth was assayed with a microplate reader by monitoring the absorption at 600 nm. All experiments were done in triplicate, and repeated three times.

A further experiment has as its system S. epidermidis. Put plainly: MIC test, broth dilution micromethod. In kind it is cell-based. Particulars: Staphylococcus epidermidis; 24 hours at 37 °C, complete inhibition of cell growth. The protocol: as §1, §2
A general note: Broth dilution looks for growth in wells or tubes with falling amounts of substance.

The next experiment deals with T2, SrtA (Staphylococcus aureus, UniProt Q2FV99).
T2 construct: expressed with an N-terminal deletion of 59 amino acid residues (SrtAΔNS9, residues 60-206); made in house
T2 sequence (Q2FV99 60-206): as above
Put plainly: Binding to SrtA monitored by 2D [15N,1H]-HSQC NMR spectroscopy, with dialysis. Particulars: 0.3 mM (1.0 equivalents) inhibitor, after dialysis against NMR sample buffer. The text has this:
• Fig. 1 - represents the binding of a selected inhibitor N-(adamantan-1-yl)-2-(3-oxo-2,3-dihydro-1,2-benzothiazol-2-yl)acetamide to SrtA monitored by 2D [^15N,^1H]-HSQC NMR spectroscopy. (a) Spectrum of SrtA in absence of inhibitor. […] (a) SrtA active site after modification by inhibitor. The inhibitor (in cyan) and near-by side chains of SrtA are shown with sticks and labeled. Side chains are colored according to their type: hydrophobic in yellow, negatively charged in red, positively charged in blue and hydrophilic in grey. Hydrogens are omitted for clarity. […] (c) Molecular surface representation of SrtA in complex with inhibitor. It can be seen in the figure that the inhibitor occupies almost all volume of the substrate pocket, the majority of interactions are hydrophobic and hydrogen bond is at the R139.
Determination of the complex structure of selected inhibitor and sortase enzyme was performed by using the nuclear magnetic resonance (NMR) spectroscopy methods. The collected NMR data allowed to specify the structure of inhibitory complexes.
To verify that the selected inhibitor can react with a cysteine thiol (such as the SrtA active site C 184) we performed a reaction with cysteine in the NMR tube and observed the formation of a covalent adduct (Figure 2). The chemical structure of the product was verified using proton 1D and 2D NMR methods.

In brackets after ≈: the same amount, converted by molar mass. Where two headings read alike, the source gives them in different places.

For `O=C(Cn1sc2ccccc2c1=O)NNC(=O)C12CC3CC(CC(C3)C1)C2` [N'-(2-(3-oxobenzo[d]isothiazol-2(3H)-yl)acetyl)adamantane-1-carbohydrazide], the IC50 stood at 3.8 µM at S. aureus sortase A and 12.1 µg/mL (≈ 31.4 µM) in the experiment on NIH/3T3 cells (NIH3T3, 48 hours exposure, MTT, mean of three independent experiments ±SD). Further, the MIC in the experiment on Staphylococcus aureus came to 16 µg/mL (≈ 41.5 µM); against S. epidermidis it was 4 µg/mL (≈ 10.4 µM). In the experiment on Staphylococcus aureus (average over S. aureus and S. epidermidis), the “MIC values of the new compound in comparison to the initial hit molecule” value is approximately 10 fold.
Regarding `O=C(Cn1sc2ccccc2c1=O)NC12CC3CC(CC(C3)C1)C2` [N-(adamantan-1-yl)-2-(3-oxo-2,3-dihydro-1,2-benzothiazol-2-yl)acetamide], the IC50 on S. aureus sortase A is 6.2 µM; in the experiment on NIH/3T3 cells (NIH3T3, 48 h), 1.3 µg/mL (≈ 3.8 µM). Further, the “binding of inhibitor to SrtA (reversibility)” value on SrtA was “irreversibly”. Further, the results for the MIC with Staphylococcus aureus and against S. epidermidis were 1 µg/mL (≈ 2.92 µM) and 0.5 µg/mL (≈ 1.46 µM), respectively.
